Data taken from patent US11142515B2, “Pyrazolyl-ureas as kinase inhibitors” (RESPIVERT LIMITED, priority 2014, dated 2021).

Experiments:
[1] = target: T1, p38 MAPKα isoform (MAPK14) (Homo sapiens, UniProt Q16539); assay: p38 MAPKα enzyme inhibition (Z-LYTE FRET); type: biochemical; settings: Table 2B, unit inferred; read-out: p38 MAPKα (Enzyme Profile)
T1 construct: purchased Life Technologies
Procedure, shortened: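 Activity was measured indirectly as phosphorylation of a MAPKAP-K2-derived FRET peptide. Enzyme (added at 40 ng/mL) was preincubated 2 h at RT with compound (added solutions 40–0.0012 μg/mL).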

p38MAPKγ (MAPK12) = target: T2, p38MAPKγ (MAPK12) (Homo sapiens, UniProt P53778); assay: p38 MAPKγ enzyme inhibition (Z-LYTE FRET); type: biochemical; settings: Table 2B, unit inferred; read-out: p38 MAPKγ (Enzyme Profile)
T2 construct: purchased Life Technologies
T2 sequence (P53778 1-367): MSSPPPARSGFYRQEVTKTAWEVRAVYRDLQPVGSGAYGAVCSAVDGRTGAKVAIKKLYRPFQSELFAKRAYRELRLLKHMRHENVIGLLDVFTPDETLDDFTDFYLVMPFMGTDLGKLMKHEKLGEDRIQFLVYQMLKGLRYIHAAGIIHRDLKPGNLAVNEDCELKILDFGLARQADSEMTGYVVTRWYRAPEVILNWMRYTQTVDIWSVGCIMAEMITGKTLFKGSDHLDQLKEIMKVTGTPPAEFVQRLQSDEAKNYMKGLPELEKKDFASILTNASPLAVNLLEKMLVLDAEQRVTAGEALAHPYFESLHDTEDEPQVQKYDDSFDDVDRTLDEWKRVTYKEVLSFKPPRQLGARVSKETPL
Procedure, shortened: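 Enzyme (added at 800 ng/mL) was preincubated 2 h at RT with compound (solutions of 40 to 0.0012 μg/mL), then FRET peptide (8 μM) and ATP (400 μM), both as added, were reacted 1 h at RT. Protease development followed for 1 h; phosphorylation was read as the coumarin/fluorescein emission ratio.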

T1 sequence (Q16539 whole entry, canonical isoform): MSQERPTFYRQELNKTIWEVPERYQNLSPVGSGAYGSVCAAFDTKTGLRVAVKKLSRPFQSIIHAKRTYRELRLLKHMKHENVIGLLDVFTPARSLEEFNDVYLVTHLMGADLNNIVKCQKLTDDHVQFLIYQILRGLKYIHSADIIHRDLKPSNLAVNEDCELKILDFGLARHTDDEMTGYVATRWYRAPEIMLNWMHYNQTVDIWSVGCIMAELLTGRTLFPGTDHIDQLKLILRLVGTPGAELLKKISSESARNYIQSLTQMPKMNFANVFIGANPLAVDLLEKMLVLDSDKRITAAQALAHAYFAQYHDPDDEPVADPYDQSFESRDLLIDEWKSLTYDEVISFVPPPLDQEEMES

Structure (SMILES)	IC50 [1] [nM]	IC50 (p38MAPKγ (MAPK12)) [nM]
Cc1ccc(-n2nc(C(C)(C)C)cc2NC(=O)Nc2ccc(OCc3ccnc(Nc4cncc(CCO)n4)c3)c3ccccc23)cc1 [Example 171, 1-(3-(tert-butyl)-1-(p-tolyl)-1H-pyrazol-5-yl)-3-(4-((2-((6-(2-hydroxyethyl)pyrazin-2-yl)amino)pyridin-4-yl)methoxy)naphthalen-1-yl)urea]	12	49
CCCc1cncc(Nc2cc(COc3ccc(NC(=O)Nc4cc(C(C)(C)C)nn4-c4ccc(C)cc4)c4ccccc34)ccn2)n1 [Example 172, 1-(3-(tert-butyl)-1-(p-tolyl)-1H-pyrazol-5-yl)-3-(4-((2-((6-propylpyrazin-2-yl)amino)pyridin-4-yl)methoxy)naphthalen-1-yl) urea]	31	169
CCc1ccc(-n2nc(C(C)(C)C)cc2NC(=O)Nc2ccc(OCc3ccnc(Nc4cncc(CC)n4)c3)c3ccccc23)cc1 [Example 173, 1-(3-(tert-butyl)-1-(4-ethylphenyl)-1H-pyrazol-5-yl)-3-(4-((2-((6-ethylpyrazin-2-yl)amino)pyridin-4-yl)methoxy)naphthalen-1-yl) urea]	54	571
CC(C)(C)c1cc(NC(=O)Nc2ccc(OCc3ccnc(Nc4cnccn4)c3)c3ccccc23)n(-c2cccc(CO)c2)n1 [Example 174, 1-(3-(tert-butyl)-1-(3-(hydroxymethyl)phenyl)-1H-pyrazol-5-yl)-3-(4-((2-(pyrazin-2-ylamino)pyridin-4-yl)methoxy)naphthalen-1-yl)urea]	7.7	56
CCc1cncc(Nc2cc(COc3ccc(NC(=O)Nc4cc(C(C)(C)C)nn4-c4cccc(Cl)c4)c4ccccc34)ccn2)n1 [Example 175, 1-(3-(tert-butyl)-1-(3-chlorophenyl)-1H-pyrazol-5-yl)-3-(4-((2-((6-ethylpyrazin-2-yl)amino)pyridin-4-yl)methoxy)naphthalen-1-yl)urea]	38	> 15500
Cc1ccc(-n2nc(C(C)(C)C)cc2NC(=O)Nc2ccc(OCc3ccnc(Nc4cnc(C(=O)N5CCC(F)CC5)cn4)c3)c3ccccc23)cc1 [Example 176, 1-(3-(tert-butyl)-1-(p-tolyl)-1H-pyrazol-5-yl)-3-(4-((2-((5-(4-fluoropiperidine-1-carbonyl)pyrazin-2-yl)amino)pyridin-4-yl)methoxy)naphthalen-1-yl)urea]	36	458
COc1ccc(-n2nc(C(C)(C)C)cc2NC(=O)Nc2ccc(OCc3ccnc(Nc4cnc(CO)cn4)c3)c3ccccc23)cn1 [Example 177, 1-(3-(tert-butyl)-1-(6-methoxypyridin-3-yl)-1H-pyrazol-5-yl)-3-(4-((2-((5-(hydroxymethyl)pyrazin-2-yl)amino)pyridin-4-yl)methoxy)naphthalen-1-yl) urea]	5.2	81
COc1cccc(-n2nc(C(C)(C)C)cc2NC(=O)Nc2ccc(OCc3ccnc(Nc4cnc(CO)cn4)c3)c3ccccc23)c1 [Example 178, 1-(3-(tert-butyl)-1-(3-methoxyphenyl)-1H-pyrazol-5-yl)-3-(4-((2-((5-(hydroxy-methyl)pyrazin-2-yl)amino)pyridin-4-yl)methoxy)naphthalen-1-yl)urea]	5.8	36
Cc1ncc(Nc2cc(COc3ccc(NC(=O)Nc4cc(C(C)(C)C)nn4-c4cccc(Cl)c4)c4ccccc34)ccn2)nc1C [Example 179, 1-(3-(tert-butyl)-1-(3-chloro-phenyl)-1H-pyrazol-5-yl)-3-(4-((2-((5,6-dimethyl-pyrazin-2-yl)amino)pyridin-4-yl)methoxy)naphthalen-1-yl)urea]	46	> 15500
Cc1cc(C)cc(-n2nc(C(C)(C)C)cc2NC(=O)Nc2ccc(OCc3ccnc(Nc4cnccn4)c3)c3ccccc23)c1 [Example 180, 1-(3-(tert-butyl)-1-(3,5-dimethylphenyl)-1H-pyrazol-5-yl)-3-(4-((2-(pyrazin-2-ylamino)pyridin-4-yl)methoxy)naphthalen-1-yl) urea]	19	112
Cc1cc(F)cc(-n2nc(C(C)(C)C)cc2NC(=O)Nc2ccc(OCc3ccnc(Nc4cnccn4)c3)c3ccccc23)c1 [Example 181, 1-(3-(tert-butyl)-1-(3-fluoro-5-methylphenyl)-1H-pyrazol-5-yl)-3-(4-((2-(pyrazin-2-ylamino)pyridin-4-yl)methoxy)naphthalen-1-yl)urea]	15	64
Cc1ccc(-n2nc(C(C)(C)C)cc2NC(=O)Nc2ccc(OCc3ccnc(Nc4cnc(C)c(C)n4)c3)c3ccccc23)cc1F [Example 182, 1-(3-(tert-butyl)-1-(3-fluoro-4-methylphenyl)-1H-pyrazol-5-yl)-3-(4-((2-((5,6-dimethylpyrazin-2-yl)amino)pyridin-4-yl)methoxy)naphthalen-1-yl) urea]	44	1140
CCOc1ccc(-n2nc(C(C)(C)C)cc2NC(=O)Nc2ccc(OCc3ccnc(Nc4cnccn4)c3)c3ccccc23)cc1F [Example 183, 1-(3-(tert-butyl)-1-(4-ethoxy-3-fluorophenyl)-1H-pyrazol-5-yl)-3-(4-((2-(pyrazin-2-ylamino)pyridin-4-yl)methoxy)naphthalen-1-yl) urea]	38	> 15500
CCOc1cccc(-n2nc(C(C)(C)C)cc2NC(=O)Nc2ccc(OCc3ccnc(Nc4cnccn4)c3)c3ccccc23)c1 [Example 184, 1-(3-(tert-butyl)-1-(3-ethoxyphenyl)-1H-pyrazol-5-yl)-3-(4-((2-(pyrazin-2-ylamino)pyridin-4-yl)methoxy)naphthalen-1-yl) urea]	19	> 15900
Cc1ccc(-n2nc(C(C)(C)C)cc2NC(=O)Nc2ccc(OCc3ccnc(Nc4cnc(C(=O)N5CCC(C)CC5)cn4)c3)c3ccccc23)cc1 [Example 185, 1-(3-(tert-butyl)-1-(p-tolyl)-1H-pyrazol-5-yl)-3-(4-((2-((5-(4-methylpiperidine-1-carbonyl)pyrazin-2-yl)amino)pyridin-4-yl)methoxy)naphthalen-1-yl) urea]	110	2510
COCCCNC(=O)c1cnc(Nc2cc(COc3ccc(NC(=O)Nc4cc(C(C)(C)C)nn4-c4ccc(C)cc4)c4ccccc34)ccn2)cn1 [Example 186, 5-((4-(((4-(3-(3-(tert-butyl)-1-(p-tolyl)-1H-pyrazol-5-yl)ureido)naphthalen-1-yl)oxy)methyl)pyridin-2-yl)amino)-N-(3-methoxypropyl) pyrazine-2-carboxamide]	25	> 14000
CC(C)(C)c1cc(NC(=O)Nc2ccc(OCc3ccnc(Nc4cnccn4)c3)c3ccccc23)n(-c2ccc(F)cc2)n1 [Example 187, 1-(3-(tert-butyl)-1-(4-fluorophenyl)-1H-pyrazol-5-yl)-3-(4-((2-(pyrazin-2-ylamino)pyridin-4-yl)methoxy)naphthalen-1-yl) urea]	16	180
COCCCc1cnc(Nc2cc(COc3ccc(NC(=O)Nc4cc(C(C)(C)C)nn4-c4ccc(C)cc4)c4ccccc34)ccn2)cn1 [Example 188, 1-(3-(tert-butyl)-1-(p-tolyl)-1H-pyrazol-5-yl)-3-(4-((2-((5-(3-methoxypropyl)pyrazin-2-yl)amino)pyridin-4-yl)methoxy)naphthalen-1-yl)urea]	32	442
CCCc1cncc(Nc2cc(COc3ccc(NC(=O)Nc4cc(C(C)(C)C)nn4-c4cccc(OC)c4)c4ccccc34)ccn2)n1 [Example 189, 1-(3-(tert-butyl)-1-(3-methoxyphenyl)-1H-pyrazol-5-yl)-3-(4-((2-((6-propyl-pyrazin-2-yl)amino)pyridin-4-yl)methoxy)naphthalen-1-yl)urea]	72	579
COCc1cnc(Nc2cc(COc3ccc(NC(=O)Nc4cc(C(C)(C)C)nn4-c4ccc(C)cc4)c4ccccc34)ccn2)cn1 [Example 190, 1-(3-(tert-butyl)-1-(p-tolyl)-1H-pyrazol-5-yl)-3-(4-((2-((5-(methoxymethyl)pyrazin-2-yl)amino)pyridin-4-yl)methoxy)naphthalen-1-yl) urea]	23	232
CCNC(=O)c1cnc(Nc2cc(COc3ccc(NC(=O)Nc4cc(C(C)(C)C)nn4-c4ccc(C)cc4)c4ccccc34)ccn2)cn1 [Example 191, 5-((4-(((4-(3-(3-(tert-butyl)-1-(p-tolyl)-1H-pyrazol-5-yl)ureido)naphthalen-1-yl)oxy)methyl)pyridin-2-yl)amino)-N-ethylpyrazine-2-carboxamide]	47	460
CCCNC(=O)c1cnc(Nc2cc(COc3ccc(NC(=O)Nc4cc(C(C)(C)C)nn4-c4ccc(C)cc4)c4ccccc34)ccn2)cn1 [Example 192, 5-((4-(((4-(3-(3-(tert-butyl)-1-(p-tolyl)-1H-pyrazol-5-yl)ureido)naphthalen-1-yl)oxy)methyl)pyridin-2-yl)amino)-N-propylpyrazine-2-carboxamide]	46	> 14600
